Measured values reported in patent US12606558B2, “Condensed pyrazole derivatives as inhibitors of SARM1” (Disarm Therapeutics, Inc., priority 2020, dated 2026).

target: T1, SARM1 (Homo sapiens, UniProt Q6SZW1); assay: ARM-SAM-TIR SARM1 IC50 assay (NADase activity, NAD+ cleavage); type: biochemical; settings: ARM-SAM-TIR lysate 5 μg/mL, 2 h pre-incubation, 5 μM NAD+, 2 hr room temperature, RapidFire mass spectrometry of NAD+ and ADPR
T1 construct: made in house; host or cells: NRK1-HEK293T cells, transient transfection; clarified lysate used without purification
T1 sequence (Q6SZW1 with tags, fused parts or gaps): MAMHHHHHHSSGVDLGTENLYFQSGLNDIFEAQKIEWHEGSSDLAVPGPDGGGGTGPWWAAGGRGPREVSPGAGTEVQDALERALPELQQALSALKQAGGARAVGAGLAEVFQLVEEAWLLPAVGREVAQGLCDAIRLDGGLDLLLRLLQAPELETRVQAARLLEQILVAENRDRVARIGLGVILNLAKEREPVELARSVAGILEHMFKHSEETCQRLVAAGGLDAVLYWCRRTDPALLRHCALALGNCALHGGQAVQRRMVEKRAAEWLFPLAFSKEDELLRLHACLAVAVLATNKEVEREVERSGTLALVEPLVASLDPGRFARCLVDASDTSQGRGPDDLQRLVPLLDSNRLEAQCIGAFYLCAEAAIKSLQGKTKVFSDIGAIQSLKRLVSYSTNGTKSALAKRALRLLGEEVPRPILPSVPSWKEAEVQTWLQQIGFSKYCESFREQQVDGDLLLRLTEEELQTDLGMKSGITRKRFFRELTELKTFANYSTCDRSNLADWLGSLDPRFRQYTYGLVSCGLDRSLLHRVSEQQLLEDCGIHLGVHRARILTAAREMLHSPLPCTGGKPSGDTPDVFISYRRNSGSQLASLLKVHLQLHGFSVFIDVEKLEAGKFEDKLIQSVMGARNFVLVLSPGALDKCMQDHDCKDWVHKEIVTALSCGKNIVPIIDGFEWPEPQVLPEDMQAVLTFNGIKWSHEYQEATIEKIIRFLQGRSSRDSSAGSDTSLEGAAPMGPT
Method: This Example describes an assay of ARM-SAM-TIR NADase activity and use of this assay to measure the efficacy of compounds of Formula I/II to block SARM1 mediated NAD+ cleavage. This assay was optimized in such a way as to characterize the efficacy of the compounds in Formula I/II to inhibit SARM1 activity and to calculate an IC50 value for each compound. This assay makes use of full length SARM1, which encompasses the ARM, SAM and TIR domains.
NRK1-HEK293T cells were seeded onto 150 cm^2 plates at 20×10^6 cells per plate. The next day, the cells were transfected with 15 μg ARM-SAM-TIR expression plasmid, SEQ ID NO: 1.
The cultures were supplemented with 1 mM NR at time of transfection to minimize toxicity from ARM-SAM-TIR overexpression. Forty-eight hours after transfection, cells were harvested, pelleted by centrifugation at 1,000 rpm (Sorvall ST 16R centrifuge, Thermo Fisher), and washed once with cold PBS (0.01 M phosphate buffered saline NaCl 0.138 M; KCl 0.0027 M; pH 7.4). The cells were resuspended in PBS with protease inhibitors (cOmplete™ protease inhibitor cocktail, Roche product #11873580001) and cell lysates were prepared by sonication (Branson Sonifer 450, output=3, 20 episodes of stroke). The lysates were centrifuged (12,000×g for 10 min at 4° C.) to remove cell debris and the supernatants (containing ARM-SAM-TIR protein) were stored at −80° C. for later use in the in vitro ARM-SAM-TIR NADase assay (see below). Protein concentration was determined by the Bicinchoninic (BCA) method and used to normalize lysate concentrations.
The enzymatic assay was performed in a 384-well polypropylene plate in Dulbecco's PBS buffer in a final assay volume of 20 μL. ARM-SAM-TIR lysate with a final concentration of 5 μg/mL was pre-incubated with the respective compound at 1% DMSO final assay concentration over 2 h at room temperature. The reaction was initiated by addition of 5 μM final assay concentration of NAD+ as substrate. After a 2 hr room temperature incubation, the reaction was terminated with 40 μL of stop solution of 7.5% trichloroactetic acid in acetonitrile. The NAD+ and ADPR concentrations were analyzed by a RapidFire High Throughput Mass Spectrometry System (Agilent Technologies, Santa Clara, Calif.) using an API4000 triple quadrupole mass spectrometer (AB Sciex Framingham, Mass.).

IC50 [µM]	SMILES
0.1 to 1	O=C(CCc1ccc(Cl)nc1)N1CCCc2c(-c3ccncc3)n[nH]c21 [Example 1]
< 0.1	O=C(CCc1ccc(Cl)cc1)N1CCCc2c(-c3ccncc3)n[nH]c21 [Example 2]
< 0.1	O=C(CCc1ccc(Cl)cc1)N1CCCc2c(-c3ccnnc3)n[nH]c21 [Example 7]
0.1 to 1	N#Cc1ccc(CCC(=O)N2CCCc3c(-c4ccncc4)n[nH]c32)cc1 [Example 8]
< 0.1	O=C(CCc1cnc(Cl)c(F)c1)N1CCCc2c(-c3ccncc3)n[nH]c21 [Example 11]
< 0.1	O=C(CCc1ccc(Cl)c(F)c1)N1CCCc2c(-c3ccncc3)n[nH]c21 [Example 13]
< 0.1	N#Cc1ccc(CCC(=O)N2CCCc3c(-c4ccncc4)n[nH]c32)cc1F [Example 14]
< 0.1	O=C(CCc1ccc(Cl)c(F)c1)N1CCCc2c(-c3ccnnc3)n[nH]c21 [Example 15]
< 0.1	N#Cc1ccc(CCC(=O)N2CCCc3c(-c4ccnnc4)n[nH]c32)cc1F [Example 16]

Continued, molecule first:

SMILES	IC50 [µM]
O=C(CCc1ccc(Cl)cc1)N1CCOc2c(-c3ccncc3)n[nH]c21 [Example 3]	< 0.1
O=C(NCc1ccc(Cl)nc1)N1CCCc2c(-c3ccncc3)n[nH]c21 [Example 4]	> 10
O=C(NCc1ccc(Cl)cc1)N1CCCc2c(-c3ccncc3)n[nH]c21 [Example 5]	1.01 to 5
O=C(CCc1ccc(Cl)cc1)N1CCOc2c(-c3ccnnc3)n[nH]c21 [Example 6]	< 0.1
N#Cc1ccc(CCC(=O)N2CCCc3c(-c4ccnnc4)n[nH]c32)cc1 [Example 9]	< 0.1
O=C(CCc1ccc(Cl)nc1)N1CCCc2c(-c3ccnnc3)n[nH]c21 [Example 10]	< 0.1
O=C(CCc1cnc(Cl)c(F)c1)N1CCCc2c(-c3ccnnc3)n[nH]c21 [Example 12]	< 0.1
O=C1CCN(C(=O)CCc2ccc(Cl)cc2)c2[nH]nc(-c3ccncc3)c21 [Example 17]	< 0.1
O=C1CCN(C(=O)CCc2ccc(Cl)nc2)c2[nH]nc(-c3ccncc3)c21 [Example 18]	0.1 to 1
O=C(CCc1ccc(Cl)cc1)N1CCC(O)c2c(-c3ccncc3)n[nH]c21 (centres unmarked) [Example 19]	< 0.1
O=C(CCc1ccc(Cl)nc1)N1CCC(O)c2c(-c3ccncc3)n[nH]c21 (centres unmarked) [Example 20]	0.1 to 1
